Patent US9265735B2, “Methods for screening to identify therapeutic agents for Alzheimer's disease and use thereof” (New York University, priority 2010, dated 2016)
“Also recorded” adds a separate entry of the source.

Key:
[1] = test system: WT and PS1 KO cells; experiment: Intracellular protein degradation (pulse-chase, [3H]-leucine) in WT and PS1 KO blastocysts; assay type: cell-based, Murine; settings: serum withdrawal, NH4Cl 20 mM, 3MA 10 mM
Method: (§1) Total protein degradation in cultured cells was measured by pulse-chase experiments (Auteri et al., 1983, J Cell Physiol 115, 167-174). Confluent cells were labeled with [^3H]-leucine (2 μCi/ml) for 48 hrs at 37° C. in order to preferentially label long-lived proteins. Following labeling, cells were extensively washed and maintained in complete medium (DMEM+10% fetal bovine serum), under which conditions autophagy is suppressed, or in serum-deprived medium, where autophagy is induced. Under both conditions, after washing the cells, the medium was supplemented with unlabeled 2.8 mM leucine to prevent [^3H]-leucine reincorporation into newly synthesized proteins. Aliquots of the medium taken at different time-points were precipitated with 10% TCA, filtered using a 0.22 μm pore membrane and radioactivity in the flow-through was measured. Proteolysis is expressed as the percentage of the initial acid-precipitable radioactivity (protein) transformed to acid-soluble radioactivity (amino acids and small peptides) over time. To inhibit autophagy in this system, 20 mM NH4Cl or 10 mM 3MA was added immediately after the labeling period and maintained at that concentration throughout the chase. […] Protein synthesis was determined as the incorporation of [^3H]leucine into acid-insoluble material in the presence of an excess (2.8 mM) unlabeled leucine in the medium. […]

[2] = test system: PS1KO blastocysts; experiment: Lysosomal pH measurement with Dextran conjugated Lysosensor Yellow/Blue in PS1KO cells; assay type: cell-based, Murine; settings: for effect of pretreatment on the action of isoproterenol on lysosomal pH / effect on elevated lysosomal pH in PS1KO cells: PS1KO cells; for effect of pretreatment on the action of isoproterenol on lysosomal pH: pretreatment before isoproterenol, FIG. 10F; for effect on elevated lysosomal pH in PS1KO cells: FIG. 10A/G; for lysosomal pH after treatment relative to WT lysosomal pH (ANOVA, Dunnet's post-test): PS1KO blastocysts, FIG. 11
Method: For results presented in Example 1, quantification of lysosomal pH was determined using Dextran conjugated Lysosensor Yellow/Blue DND-160 (Invitrogen) as follows. Wild Type and PS1KO blastocysts were grown in High Glucose DMEM+15% FBS with antibiotics to ˜90% confluency. Cells were then trypsinized, harvested (1×10^6 cells/ml) and loaded with 1 mg/ml of Lysosensor-dextran for 1 hour at 37° C. with 5% CO2. The cells were then washed 3× in HBSS and aliquoted at […] into a black 96-well microplate. pH calibration was performed according to the protocol established by Diwu et al (Diwu et al., (1999). Chem Biol 6, 411-418). Briefly, wild type and PS1KO blastocysts were treated with 10 μM monensin and 10 uM nigericin in MES buffer (5 mM NaCl, 115 mM KCL, 1.3 mM MgSO4, 25 mM MES), with the pH adjusted to a range from 3.5-7.0. The samples were read in a Wallac Victor 2 fluorimeter (Perkin Elmer) with excitation at 355 nm. The ratio of emission 440/535 nm was then calculated for each sample. The pH values were determined from the linear standard curve generated via the pH calibration samples.
In a more particular embodiment, quantification of lysosomal pH is determined using Dextran conjugated Lysosensor Yellow/Blue (Invitrogen) as follows. 3000 Wild Type and PS1KO blastocysts were seeded in multiple wells of black, clear bottom tissue culture treated 96 well dish and grown in High Glucose DMEM+15% FBS with antibiotics to ˜90% confluency (˜24 hours). 2 ul of 0.5 mg/ml lysosensor-dextran (1:100 dilution of a 5 mg/ml stock) was added and incubated for 1 hour at 37° C. with 5% CO2. The cells were then washed 3× in HBSS. See also methods and results set forth herein below in Example 2. This modified protocol represents an optimized protocol for the purposes set forth herein.
(§2) Quantification of lysosomal pH was determined using Dextran conjugated Lysosensor Yellow/Blue (Invitrogen). 3000 Wild Type and PS1KO blastocysts were seeded in multiple wells of black, clear bottom tissue culture treated 96 well dish and grown in High Glucose DMEM+15% FBS with antibiotics to ˜90% confluency (˜24 hours). 2 ul of 0.5 mg/ml lysosensor-dextran (1:100 dilution of a 5 mg/ml stock) was added and incubated for 1 hour at 37° C. with 5% CO2. The cells were then washed 3× in HBSS.
Performed according to the protocol established by Diwu et al (supra). Briefly, wild type and PS1KO blastocysts were treated with 10 uM monensin and 10 uM nigericin in MES buffer (5 mM NaCl, 115 mM KCL, 1.3 mM MgSO4, 25 mM MES), with the pH adjusted to a range from 3.5-7.0 for 7-10 min prior to lysosensor addition (the additional hour in the buffer seems to have no effect), these cells are not washed in HBSS since permeabilization with ionophores makes them susceptible to detachment.
(§3) The samples were read in a Wallac Victor 2 fluorimeter (Perkin Elmer) with excitation at 355 nm. The ratio of emission 440 nm/535 nm was then calculated for each sample. pH values were determined from the linear std curve generated via the pH calibration samples.

[3] = test system: Cat B; experiment: MR-Cat B signal in WT cells; assay type: cell-based, Murine; settings: NH4Cl treated WT cells
Method: (§4) Immunocytochemistry was performed as previously described (Yu et al., 2005). Secondary antibodies used were from Invitrogen: goat anti-mouse/rabbit/rat Alexa Fluor 488 and goat anti-mouse/rabbit/rat Alexa Fluor 568. Cells were imaged using a plan-Apochromat 40× or 100×/1.4 oil DIC objective lens on the laser scanning confocal microscope, LSM 510 META, with LSM software v3.5 (Carl Zeiss MicroImaging Inc). Images were analysed using ImageJ program (NIH). Organelles with low internal pH were labeled by LysoTracker DND-99 dye (Invitrogen) at the final 100 nM for 30 min. Following 4% PFA fixation, cells were further counter stained with Cat D, LMAP1, or LC3 antibody for 4 hrs then visualized with Alexa Fluor 488 conjugated secondary antibody. Active Cat D was labeled by adding Bodipy-FL-pepstatin A directly to the medium at a final concentration of 1 μg/ml for 1 hr. Following 4% PFA fixation, cells were counter stained with Cat D antibody for 4 hrs and visualized with Alexa Fluor 568 conjugated secondary antibody. […] Cells were incubated for 30 min with MR-Cathepsin B prior to mounting them under the confocal microscope. […]
(§5) Active Cat D was labeled by adding Bodipy-FL-pepstatin A directly to the medium at a final concentration of 1 mg/ml for 1 hr. […] Cat B staining with MagicRed-Cathepsin B was also measured fluorometrically with a Wallac Victor 2 fluorometer.

[4] = test system: PS1-FAD human fibroblasts; experiment: Intracellular protein degradation (pulse-chase) in control and PS1-FAD fibroblasts; assay type: cell-based; settings: serum withdrawal; NH4Cl treatment
Method: as §1

[5] = target: T1, Cat D (Mus musculus, UniProt P18242); experiment: Active Cat D labeling with Bodipy-FL-pepstatin A in WT cells; assay type: cell-based, Murine; settings: NH4Cl
T1 construct: endogenous in cells; host or cells: WT murine blastocyst cells (BD6)
Method: Immunocytochemistry was performed as previously described (Yu et al., 2005). Secondary antibodies used were from Invitrogen: goat anti-mouse/rabbit/rat Alexa Fluor 488 and goat anti-mouse/rabbit/rat Alexa Fluor 568. Cells were imaged using a plan-Apochromat 40× or 100×/1.4 oil DIC objective lens on the laser scanning confocal microscope, LSM 510 META, with LSM software v3.5 (Carl Zeiss MicroImaging Inc). Images were analysed using ImageJ program (NIH). Organelles with low internal pH were labeled by LysoTracker DND-99 dye (Invitrogen) at the final 100 nM for 30 min. Following 4% PFA fixation, cells were further counter stained with Cat D, LMAP1, or LC3 antibody for 4 hrs then visualized with Alexa Fluor 488 conjugated secondary antibody. Active Cat D was labeled by adding Bodipy-FL-pepstatin A directly to the medium at a final concentration of 1 μg/ml for 1 hr. Following 4% PFA fixation, cells were counter stained with Cat D antibody for 4 hrs and visualized with Alexa Fluor 568 conjugated secondary antibody. […] Cells were incubated for 30 min with MR-Cathepsin B prior to mounting them under the confocal microscope. To block v-ATPase proton pump activity, ammonium chloride (NH4Cl) was added directly to the medium at a final concentration of 20 mM for 6 hrs prior to LysoTracker addition.

[6] = test system: WT blastocysts; experiment: Validation of lysosomal pH measurement in WT blastocysts; assay type: cell-based, Murine; settings: FIG. 9A
Method: as §2
Performed according to the protocol established by Diwu et al (supra). […]
as §3
At the outset, the validity of the method described herein to measure lysosomal pH is confirmed. See, for example, FIG. 9A-D. More particularly, to assess the validity of the method of quantifying lysosomal pH, WT blastocysts were treated with chloroquine (CQ), which is known to elevate lysosomal pH. […]

[7] = in vivo; cited from earlier work
[8] = test system: LC3-II; experiment: LC3-II levels by immunoblot / LC3 puncta in WT and PS1 KO cells; assay type: cell-based, Murine; settings: 6 hrs
Method: (§6) Immunoblotting was performed as previously described (Yu et al., 2005). Briefly, cells used for Western blot analysis were lysed in buffer containing 50 mM Tris (pH=7.4), 150 mM NaCl, 1 mM EDTA, 1 mM EGTA, 1% Triton X-100 and 0.5% Tween-20 with protease and phosphatase inhibitors. Following electrophoresis on 4-20% gradient gel (Invitrogen), proteins were transferred onto 0.45 μm PVDF membranes (Millipore) and the membrane was incubated overnight in primary antibody then incubated with HRP conjugated secondary antibody. The blot was developed by ECL-kit (GE Healthcare). To assess v-ATPase V0a subunit glycosylation, lysate from WT and PS1KO cells were either treated for 24 hrs at 37° C. with PNGase F or O-glycanase using an enzymatic deglycosylation kit according to the manufacturer's instructions (PROzyme) or with Endo H (New England Biolabs) for 24 hrs at 37° C. Total glycoproteins were isolated using Glycoprotein Isolation Kit, ConA according to the manufacturer's instructions (Thermo Scientific).
Immunocytochemistry was performed as previously described (Yu et al., 2005). Secondary antibodies used were from Invitrogen: goat anti-mouse/rabbit/rat Alexa Fluor 488 and goat anti-mouse/rabbit/rat Alexa Fluor 568. […] Images were analysed using ImageJ program (NIH). […]

[9] = test system: Cat B; experiment: Cat B activity by MagicRed-Cathepsin B (MR-Cat B) in PS1KO cells; assay type: cell-based, Murine; settings: PS1 KO cells
Method: as §4, §5

[10] = test system: v-ATPase V0a1 subunit; experiment: v-ATPase V0a1 glycosylation state in WT cells (immunoblot); assay type: cell-based, Murine; settings: 100-kDa with vs 120-kDa without tunicamycin
Method: as §6

T1 sequence (P18242 65-410): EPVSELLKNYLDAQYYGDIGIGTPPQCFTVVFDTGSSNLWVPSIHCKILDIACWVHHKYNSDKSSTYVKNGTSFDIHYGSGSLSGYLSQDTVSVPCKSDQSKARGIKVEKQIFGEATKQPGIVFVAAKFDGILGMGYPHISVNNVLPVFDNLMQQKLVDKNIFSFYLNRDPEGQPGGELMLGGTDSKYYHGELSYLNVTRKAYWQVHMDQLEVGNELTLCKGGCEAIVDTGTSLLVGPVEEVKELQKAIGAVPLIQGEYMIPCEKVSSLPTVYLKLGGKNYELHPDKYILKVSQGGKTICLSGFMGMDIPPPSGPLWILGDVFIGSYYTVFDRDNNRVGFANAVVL
Chain of v-ATPase V0a1 subunit (Q9Z1G4 whole entry): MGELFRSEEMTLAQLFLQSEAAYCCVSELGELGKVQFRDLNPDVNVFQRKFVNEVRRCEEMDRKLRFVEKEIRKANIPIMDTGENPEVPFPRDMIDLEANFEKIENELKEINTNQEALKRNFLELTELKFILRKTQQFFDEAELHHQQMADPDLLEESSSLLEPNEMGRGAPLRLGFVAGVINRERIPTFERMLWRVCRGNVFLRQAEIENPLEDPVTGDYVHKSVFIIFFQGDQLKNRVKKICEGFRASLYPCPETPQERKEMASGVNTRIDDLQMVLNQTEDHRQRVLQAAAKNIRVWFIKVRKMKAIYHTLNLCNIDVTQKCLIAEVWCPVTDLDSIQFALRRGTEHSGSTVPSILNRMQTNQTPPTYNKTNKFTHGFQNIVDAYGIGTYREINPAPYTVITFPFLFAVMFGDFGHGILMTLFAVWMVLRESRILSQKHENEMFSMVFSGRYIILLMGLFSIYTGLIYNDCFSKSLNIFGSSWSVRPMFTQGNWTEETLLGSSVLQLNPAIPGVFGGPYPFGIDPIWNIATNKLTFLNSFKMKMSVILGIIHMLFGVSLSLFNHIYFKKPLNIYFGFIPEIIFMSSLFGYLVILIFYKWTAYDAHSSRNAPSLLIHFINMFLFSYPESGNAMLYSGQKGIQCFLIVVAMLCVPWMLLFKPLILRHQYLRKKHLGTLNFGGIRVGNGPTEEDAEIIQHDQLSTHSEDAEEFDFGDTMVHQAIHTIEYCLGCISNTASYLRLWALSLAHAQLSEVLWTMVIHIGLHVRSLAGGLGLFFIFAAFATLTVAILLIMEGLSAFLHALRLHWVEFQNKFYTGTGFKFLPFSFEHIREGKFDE

Cn1cnc(N)c2ncnc1-2 [3-methyladenine]
increase in proteolysis after serum removal [1]: only the increased proteolysis in WT cells was blocked

O=S(=O)(NCCNC/C=C/c1ccc(Br)cc1)c1cccc2cnccc12 [H89]
effect of pretreatment on the action of isoproterenol on lysosomal pH [2]: prevent the action of isoproterenol

Cl.N [NH4Cl, ammonium chloride]
MR-Cat B signal [3]: minimal
increase in proteolysis after serum removal [1]: entirely blocked the increase of proteolysis in both cell types
difference in proteolytic rates between control and PS1-FAD fibroblasts [4]: eliminated the difference in proteolytic rates between the two cell groups
Bodipy-FL-pepstatin A labeling of Cat D-positive compartments (active Cat D) [5]: nearly completely abolished; also recorded: minimal colocalization

C=CCc1ccccc1OCC(O)CNC(C)C (stereo not shown) [alprenolol]
effect on elevated lysosomal pH in PS1KO cells [2]: did not affect lysosomal pH; also recorded: remains unchanged

CCN(CC)CCCC(C)Nc1ccnc2cc(Cl)ccc12 (stereo not shown) [chloroquine]
lysosomal pH of WT blastocysts [6]: significantly elevated WT lysosomal pH

CC(C)(C)NCC(O)c1cc(Cl)c(N)c(Cl)c1 (stereo not shown) [clenbuterol]
consequences on lysosomal pH and autophagy in PS1-deleted cells ([2]; PS1-deleted cells, clinically relevant concentrations): desired consequences on lysosomal pH and autophagy
lysosomal pH after treatment relative to WT lysosomal pH (ANOVA, Dunnet's post-test) [2]: did not possess significant difference from WT lysosomal pH; also recorded: did not differ significantly from that of WT lysosomal pH
effect on elevated lysosomal pH in PS1KO cells [2]: normal levels or even hyperacidic levels; also recorded: restored to WT levels
crossing of the blood brain barrier (BBB) [7]: cross the blood brain barrier

COc1cc(/C=C/C(=O)CC(=O)/C=C/c2ccc(O)c(OC)c2)ccc1O [curcumin]
lysosomal pH after treatment relative to WT lysosomal pH (ANOVA, Dunnet's post-test) [2]: reduces lysosomal pH in excess of WT acidity

CC(=O)N[C@@H](CC(C)C)C(=O)N[C@@H](CC(C)C)C(=O)N[C@H](C=O)CCCNC(=N)N [leupeptin]
LC3 levels in PS1 KO cells ([8]; PS1 KO cells, 0.3 mM): did not increase LC3 levels
LC3-II levels in WT cells ([8]; WT cells, rapamycin acute induction, leupeptin 0.3 mM): significantly elevated LC3-II levels and LC3-positive puncta

CNC[C@H](O)c1cccc(O)c1 [phenylepherine]
effect on elevated lysosomal pH in PS1KO cells [2]: did not affect lysosomal pH; also recorded: remains unchanged

CC(C)NCC(O)COc1cccc2ccccc12 (stereo not shown) [propranol]
effect of pretreatment on the action of isoproterenol on lysosomal pH [2]: prevent the action of isoproterenol

Oc1ccc(C=Cc2cc(O)cc(O)c2)cc1 [resveratrol]
active Cat B in PS1 KO cells [9]: partially restoring active Cat B

COc1ccc(C2CNC(=O)C2)cc1OC1CCCC1 (stereo not shown) [rolipram]
lysosomal pH after treatment relative to WT lysosomal pH (ANOVA, Dunnet's post-test) [2]: did not differ significantly from that of WT lysosomal pH
lysosomal pH after treatment relative to WT lysosomal pH (ANOVA, Dunnet's post-test) ([2]; listed as Rolipram): did not possess significant difference from WT lysosomal pH
effect on elevated lysosomal pH in PS1KO cells [2]: decreased lysosomal pH

tunicamycin
gel mobility of v-ATPase V0a1 subunit [10]: increase in mobility
